Inhibition and IC50 data for 32 compounds are collected here from patent publication US10544106B2, “Certain chemical entities, compositions, and methods” (NeuPharma, Inc., priority 2016, dated 2020).

The target in the experiment is BTK (Homo sapiens (Human), UniProt Q06187). The experiment can be described thus: Z'-LYTE kinase inhibition assay against BTK. The class given is biochemical. Particulars: for inhibition at 0.1 µM: compound at 100 nM, ATP concentration at Km; for IC50: series of concentrations, GraphPad Prism 5. The essentials: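 Compounds were titrated over 10 points (3-fold steps, 1% DMSO) against BTK (1.04-10.4 ng) using Tyr 01 substrate at 2 μM and ATP at Km, pH 7.5 HEPES buffer with MgCl2 and EGTA. After one hour each of reaction and development at room temperature, fluorescence gave percent inhibition and IC50.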
Chain of BTK (Q06187 whole entry): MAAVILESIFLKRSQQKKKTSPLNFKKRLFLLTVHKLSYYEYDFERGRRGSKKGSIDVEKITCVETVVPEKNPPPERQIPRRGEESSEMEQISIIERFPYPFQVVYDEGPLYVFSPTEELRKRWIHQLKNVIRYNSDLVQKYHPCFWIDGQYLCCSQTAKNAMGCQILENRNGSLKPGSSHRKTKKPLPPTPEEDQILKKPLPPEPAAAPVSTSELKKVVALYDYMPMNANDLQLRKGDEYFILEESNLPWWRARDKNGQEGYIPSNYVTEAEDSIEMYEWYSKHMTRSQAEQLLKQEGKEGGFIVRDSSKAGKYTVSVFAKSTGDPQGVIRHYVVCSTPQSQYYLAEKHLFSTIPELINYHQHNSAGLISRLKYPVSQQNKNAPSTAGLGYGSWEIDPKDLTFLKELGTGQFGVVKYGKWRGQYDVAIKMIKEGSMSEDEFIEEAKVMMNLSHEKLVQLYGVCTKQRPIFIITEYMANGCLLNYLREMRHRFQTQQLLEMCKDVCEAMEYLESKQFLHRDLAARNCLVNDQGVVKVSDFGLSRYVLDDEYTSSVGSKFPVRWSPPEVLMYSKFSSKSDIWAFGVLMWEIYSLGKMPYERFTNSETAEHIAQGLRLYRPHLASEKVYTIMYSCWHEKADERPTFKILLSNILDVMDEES

With `C=CC(=O)Nc1cccc(-c2cc(-c3ccc(C(=O)Nc4ccccn4)cc3)c(N)c3cncnc23)c1` [C170, 4-(8-(3-acrylamidophenyl)-5-aminoquinazolin-6-yl)-N-(pyridin-2-yl)benzamide], the inhibition at 0.1 µM was < 50%.
As for `C=CC(=O)Nc1cccc(-c2cc(-c3ccc(C(=O)Nc4cc(C5CC5)ccn4)cc3)c(N)c3cncnc23)c1` [C171, 4-(8-(3-acrylamidophenyl)-5-aminoquinazolin-6-yl)-N-(4-cyclopropylpyridin-2-yl)benzamide], the inhibition at 0.1 µM is > 50% and the IC50 was < 100 nM.
Consider `C=CC(=O)N1CCC(c2cc(-c3ccc(C(=O)Nc4cc(C#N)ccn4)c(F)c3)n3cnccc23)C1` (centres unmarked) [C172, 4-(5-(1-acryloylpyrrolidin-3-yl)pyrrolo[1,2-c]pyrimidin-7-yl)-N-(4-cyanopyridin-2-yl)-2-fluorobenzamide], for which the inhibition at 0.1 µM is < 50%.
Same read-out and setting: as for `C=CC(=O)Nc1cccc(-c2cc(-c3ccc(Oc4ccccn4)cc3F)c(N)c3cncnc23)c1` [C173, N-(3-(5-amino-6-(2-fluoro-4-(pyridin-2-yloxy)phenyl)quinazolin-8-yl)phenyl)acrylamide], the figure is < 50%; as for `C=CC(=O)N1CCC(c2cc(-c3ccc(Oc4ccccn4)cc3F)c(N)c3cncnc23)C1` (centres unmarked) [C174, 1-(3-(5-amino-6-(2-fluoro-4-(pyridin-2-yloxy)phenyl)quinazolin-8-yl)pyrrolidin-1-yl)prop-2-en-1-one], < 50%.
Turning to `C=CC(=O)Nc1cccc(-c2cc(-c3ccc(Oc4cc(C(F)(F)F)ccn4)cc3)cc3cncnc23)c1` [C175, N-(3-(6-(4-((4-(trifluoromethyl)pyridin-2-yl)oxy)phenyl)quinazolin-8-yl)phenyl)acrylamide], the inhibition at 0.1 µM is > 50% and the IC50 is < 100 nM.
With `C=CC(=O)Nc1cccc(-c2cc(-c3ccc(C(=O)Nc4cc(C#N)ccn4)cc3)c(N)c3cncnc23)c1` [C176, 4-(8-(3-acrylamidophenyl)-5-aminoquinazolin-6-yl)-N-(4-cyanopyridin-2-yl)benzamide], the inhibition at 0.1 µM is < 50%.
Take `C=CC(=O)Nc1cccc(-c2cc(-c3ccc(C(=O)Nc4ccccn4)cc3F)c(N)c3cncnc23)c1` [C177, 4-(8-(3-acrylamidophenyl)-5-aminoquinazolin-6-yl)-3-fluoro-N-(pyridin-2-yl)benzamide]: the inhibition at 0.1 µM is < 50%.
Take `C=CC(=O)Nc1cccc(-c2cc(-c3ccc(C(=O)Nc4ccccn4)cc3)c(N)c3cnc(N)nc23)c1` [C178, 4-(8-(3-acrylamidophenyl)-2,5-diamino-quinazolin-6-yl)-N-(pyridin-2-yl)benzamide]: the inhibition at 0.1 µM was < 50%.
Still for that read-out and setting: as for `C=CC(=O)Nc1cccc(-c2cc(-c3ccc(Oc4ccccn4)cc3)c(N)c3cncnc23)c1` [C179, N-(3-(5-amino-6-(4-(pyridin-2-yloxy)phenyl)quinazolin-8-yl)phenyl)acrylamide], the figure is < 50%; as for `C=CC(=O)Nc1cccc(-c2cc(-c3ccc(Oc4cc(C(F)(F)F)ccn4)cc3F)cc3cncnc23)c1` [C180], > 50%; as for `C=CC(=O)N1CCC(c2cc(-c3ccc(Oc4ccccn4)cc3)c(N)c3cncnc23)C1` (centres unmarked) [C181, 1-(3-(5-amino-6-(4-(pyridin-2-yloxy)phenyl)quinazolin-8-yl)pyrrolidin-1-yl)prop-2-en-1-one], < 50%.
The same measure, in the same setting: with `C=CC(=O)Nc1cccc(-c2cc(-c3ccc(Oc4ccccc4)cc3)c(N)c3cncnc23)c1` [C182, N-(3-(5-amino-6-(4-phenoxyphenyl)quinazolin-8-yl)phenyl)acrylamide] the figure was < 50%.
As to `C=CC(=O)Nc1cccc(-c2cc(-c3ccc(Oc4cc(C(F)(F)F)ccn4)cc3F)c(N)c3cncnc23)c1` [C187, N-(3-(5-amino-6-(2-fluoro-4-((4-(trifluoromethyl)pyridin-2-yl)oxy)phenyl)quinazolin-8-yl)phenyl)acrylamide], the inhibition at 0.1 µM was < 50% and the IC50 was > 100 nM.
Regarding `C=CC(=O)Nc1cccc(-c2cc(-c3ccc(Oc4cc(C(F)(F)F)ccn4)cc3)c(N)c3cncnc23)c1` [C188, N-(3-(5-amino-6-(4-((4-(trifluoromethyl)pyridin-2-yl)oxy)phenyl)quinazolin-8-yl)phenyl)acrylamide], the inhibition at 0.1 µM is < 50% and the IC50 was > 100 nM.
As to `C=CC(=O)Nc1cccc(-c2cc(-c3ccc(Oc4cc(C#N)ccn4)cc3F)cc3cncnc23)c1` [C189, N-(3-(6-(4-((4-cyanopyridin-2-yl)oxy)-2-fluorophenyl)quinazolin-8-yl)phenyl)acrylamide], the inhibition at 0.1 µM was > 50% and the IC50 was < 100 nM.
For `C=CC(=O)Nc1cccc(-c2cc(-c3ccc(C(=O)Nc4ccccn4)cc3Cl)c(N)c3cncnc23)c1` [C190, 4-(8-(3-acrylamidophenyl)-5-aminoquinazolin-6-yl)-3-chloro-N-(pyridin-2-yl)benzamide] the same measures were > 50% and < 100 nM.
The like results for `C=CC(=O)Nc1cccc(-c2cc(-c3ccc(Oc4cc(C(N)=O)ccn4)cc3)cc3cncnc23)c1` [C191, 2-(4-(8-(3-acrylamidophenyl)quinazolin-6-yl)phenoxy)isonicotinamide] were, in that order, > 50% and < 100 nM.
The like results for `C=CC(=O)N1CCC(c2cc(-c3ccc(Oc4ccccc4)cc3)c(N)c3cncnc23)C1` (centres unmarked) [C192, 1-(3-(5-amino-6-(4-phenoxyphenyl)quinazolin-8-yl)pyrrolidin-1-yl)prop-2-en-1-one] were, in that order, < 50% and > 100 nM.
For the compound `C=CC(=O)N1CCC(c2cc(-c3ccc(Oc4cc(C(F)(F)F)ccn4)cc3)c(N)c3cncnc23)C1` (centres unmarked) [C193, 1-(3-(5-amino-6-(4-((4-(trifluoromethyl)pyridin-2-yl)oxy)phenyl)quinazolin-8-yl)pyrrolidin-1-yl)prop-2-en-1-one], the inhibition at 0.1 µM was < 50% and the IC50 is > 100 nM.
The like results for `C=CC(=O)Nc1cccc(-c2cc(-c3ccc(Oc4cc(C(N)=O)ccn4)cc3F)cc3cncnc23)c1` [C194, 2-(4-(8-(3-acrylamidophenyl)quinazolin-6-yl)-3-fluorophenoxy)isonicotinamide] were, in that order, > 50% and < 100 nM.
The like results for `C=CC(=O)N1CCC(c2cc(-c3ccc(Oc4cc(C(F)(F)F)ccn4)cc3F)c(N)c3cncnc23)C1` (centres unmarked) [C195, 1-(3-(5-amino-6-(2-fluoro-4-((4-(trifluoro-methyl)pyridin-2-yl)oxy)phenyl)quinazolin-8-yl)pyrrolidin-1-yl)prop-2-en-1-one] were, in that order, < 50% and > 100 nM.
The like results for `C=CC(=O)Nc1cccc(-c2cc(-c3ccc(Oc4cc(C5CC5)ccn4)cc3F)cc3cncnc23)c1` [C198, N-(3-(6-(4-((4-cyclopropylpyridin-2-yl)oxy)-2-fluorophenyl)quinazolin-8-yl)phenyl)acrylamide] were, in that order, > 50% and < 100 nM.
Regarding `C=CC(=O)Nc1cccc(-c2cc(-c3ccc(C(=O)Nc4cc(C5CC5)ccn4)cc3Cl)c(N)c3cncnc23)c1` [C200, 4-(8-(3-acrylamidophenyl)-5-aminoquinazolin-6-yl)-3-chloro-N-(4-cyclopropylpyridin-2-yl)benzamide], the inhibition at 0.1 µM is > 50%.
For the compound `C=CC(=O)Nc1cccc(-c2cc(-c3ccc(C(=O)Nc4ccccn4)cc3C#N)cc3cncnc23)c1` [C201, 4-(8-(3-acrylamidophenyl)quinazolin-6-yl)-3-cyano-N-(pyridin-2-yl)benzamide], the inhibition at 0.1 µM was > 50% and the IC50 was < 100 nM.
As for `C=CC(=O)Nc1cccc(-c2cc(-c3ccc(C(=O)Nc4cc(C5CC5)ccn4)cc3F)c(N)c3cncnc23)c1` [C202, 4-(8-(3-acrylamidophenyl)-5-aminoquinazolin-6-yl)-N-(4-cyclopropylpyridin-2-yl)-3-fluorobenzamide], the inhibition at 0.1 µM is > 50%.
On the same count and under the same terms, with `C=CC(=O)Nc1cccc(-c2cc(-c3ccc(Oc4ccccn4)cc3Cl)c(N)c3cncnc23)c1` [C203, N-(3-(5-amino-6-(2-chloro-4-(pyridin-2-yloxy)phenyl)quinazolin-8-yl)phenyl)acrylamide] the figure was > 50%.
The same measure, in the same setting: with `CC#CC(=O)N1CCC(c2nc(-c3ccc(C(=O)Nc4ccccn4)cc3)n3c(N)ncnc23)C1` (centres unmarked) [C205, 4-(4-amino-8-(1-(but-2-ynoyl)pyrrolidin-3-yl)imidazo[1,5-a][1,3,5]triazin-6-yl)-N-(pyridin-2-yl)benzamide] the figure was > 50%.
Regarding `C=CC(=O)N1CCC(c2nc(-c3ccc(Oc4cc(C(F)(F)F)ccn4)c(F)c3)n3c(N)nccc23)C1` (centres unmarked) [C206, 1-(3-(5-amino-3-(3-fluoro-4-((4-(trifluoro-methyl)pyridin-2-yl)oxy)phenyl)imidazo[1,5-c]pyrimidin-1-yl)pyrrolidin-1-yl)prop-2-en-1-one], the inhibition at 0.1 µM is > 50% and the IC50 is < 100 nM.
For `CC#CC(=O)N1CCC(c2nc(-c3ccc(Oc4cc(C(F)(F)F)ccn4)c(F)c3)n3c(N)nccc23)C1` (centres unmarked) [C207, 1-(3-(5-amino-3-(3-fluoro-4-((4-(trifluoro-methyl)pyridin-2-yl)oxy)phenyl)imidazo[1,5-c]pyrimidin-1-yl)pyrrolidin-1-yl)but-2-yn-1-one], the inhibition at 0.1 µM is > 50%.
As to `C=CC(=O)N1CCC(c2nc(-c3ccc(Oc4ccccn4)c(F)c3)n3c(N)nccc23)C1` (centres unmarked) [C208, 1-(3-(5-amino-3-(3-fluoro-4-(pyridin-2-yloxy)phenyl)imidazo[1,5-c]pyrimidin-1-yl)pyrrolidin-1-yl)prop-2-en-1-one], the inhibition at 0.1 µM was > 50% and the IC50 is < 100 nM.
With `CC#CC(=O)N1CCC(c2nc(-c3ccc(Oc4ccccn4)c(F)c3)n3c(N)nccc23)C1` (centres unmarked) [C209, 1-(3-(5-amino-3-(3-fluoro-4-(pyridin-2-yloxy)phenyl)imidazo[1,5-c]pyrimidin-1-yl)pyrrolidin-1-yl)but-2-yn-1-one], the inhibition at 0.1 µM is > 50%.
